Structures are written as SMILES.

The experiment is described as follows: Compound was tested for inhibition of Angiotensin II receptor in rabbit aorta binding assay.
The molecule `CCc1nc2c(C)cc(C)nc2n1Cc1ccc(-c2ccoc2-c2nn[nH]n2)cc1` displayed an IC50 of 0.023 µM.

Molecule `CCc1nc2c(C)cc(C)nc2n1Cc1ccc(-c2ccccc2-c2nn[nH]n2)s1` came in with an IC50 of 1 µM. Compared with the last molecule, the IC50 is about 43-fold higher.

In the case of `CCc1nc2c(C)cc(C)nc2n1Cc1ccc(-c2cscc2-c2nn[nH]n2)cc1`, the IC50 was 0.0024 µM.

The molecule `CCc1nc2c(C)cc(C)nc2n1Cc1ccc(-c2ccsc2-c2nn[nH]n2)cc1` came in with an IC50 of 0.0023 µM.

As usually defined, the IC50 is the point on the concentration scale where inhibition reaches its midpoint. Lower therefore signals higher potency.

The values above are taken from ChEMBL document CHEMBL1126494, “New potent angiotensin II receptor antagonists containing phenylthiophenes and phenylfurans in place of the biphenyl moiety” (Bioorg Med Chem Lett, 1993).
